Measured values from publication PMC7253723, “Chain-End Modifications and Sequence Arrangements of Antimicrobial Peptoids for Mediating Activity and Nano-Assembly” (Frontiers in Chemistry, 2020).
Where two headings read alike, the source gives them in different places. Square brackets hold non-standard residues; d marks the D form. Peptide text beside a SMILES is read from it. * marks the point of attachment. N(1-naphthylmethyl)Gly = O=C(O)CNCc1cccc2ccccc12; N(4-MeBn)Gly = Cc1ccc(CNCC(=O)O)cc1; Palmitoyl = CCCCCCCCCCCCCCCC(=O)*; Nspe = C[C@H](NCC(=O)O)c1ccccc1; Nonanoyl = CCCCCCCCC(=O)*; AEEA = NCCOCCOCC(=O)O; NBuGly = CCCCNCC(=O)O; Nlys = NCCCCNCC(=O)O

Experiments:
[1] = test system: Escherichia coli (ATCC 25922); format: cell-based
Description: (§1) Technical triplicates (n = 3) or more of samples at each concentration were analyzed.

[2] = test system: Pseudomonas aeruginosa (PA01); format: cell-based
Description: as §1

[3] = test system: Staphylococcus aureus (NCTC 4135); format: cell-based
Description: as §1

[4] = Critical aggregation concentration (CAC) Nile red fluorescence assay; format: physicochemical; conditions: Nile red fluorescence (~10 nM NR in water), lipopeptoids 2.5 × 10^-2 to 1 wt.%, excitation 552 nm, peak around 610 nm, room temperature; inflection in emission intensity
Description: Nile red (NR) fluorescence was used to measure critical aggregation concentration (CAC) for the synthesized lipopeptoids. Lipopeptoids were dissolved at 2.5 × 10^−2 to 1 wt.% in a dilute solution of Nile red (0.25 μg/100 mL, i.e. ~10 nM concentration) prepared in water. NR was excited at 552 nm and emission was recorded at room temperature in the range 550–750 nm using a 10.0 × 5.0 mm^2 quartz cell (Jasco spectrofluorimeter FP-6500). The intensity of the peak centered around 610 nm is shown in the data presented in Section results and discussion.
We first examined with a CAC assay whether coupling a hydrophobic tail to AMPMs and inserting the kk and EG2 components is a viable design for generating self-assembling lipopeptoids. The CAC measures the concentration above which hydrophobic pockets (e.g., lipophilic cores of micelles) are formed, and lower CACs indicate higher propensities of self-assembly. In our experiments, the CAC is indicated by an inflection in the increase in emission intensity of a lipophilic fluorophore tracer (Nile Red) that emits more strongly when partitioned into hydrophobic lower dielectric environments (see Figure S6 for an example analysis).

[5] = MH broth microdilution (CLSI M07-A10), ~5 × 10^5 CFU/mL, overnight 37°C, OD 600 nm, MIC = concentration with OD halfway between minimum and maximum, sigmoidal fit ± SD, n = 3 or more, maximum tested 100 μM
[6] = PA01, MH broth microdilution (CLSI M07-A10), ~5 × 10^5 CFU/mL, overnight 37°C, OD 600 nm, MIC = concentration with OD halfway between minimum and maximum, sigmoidal fit ± SD, n = 3 or more, maximum tested 100 μM

Compound | Antimicrobial activity (MIC) E. coli [1] [µM] | Antimicrobial activity (MIC) P. aeruginosa [2] [µM] | Antimicrobial activity (MIC) S. aureus [3] [µM] | CAC [4] [µM] | Antimicrobial activity (MIC) E. coli [1, 5] [µM] | Antimicrobial activity (MIC) P. aeruginosa [2, 6] [µM] | Antimicrobial activity (MIC) S. aureus [3, 5] [µM]
CCCCN(CC(=O)N(CCCCN)CC(=O)N(CCCCN)CC(=O)N(CCCCN)CC(=O)N(CCCCN)CC(N)=O)C(=O)CN(Cc1cccc2ccccc12)C(=O)CN(Cc1ccc(C)cc1)C(=O)CNCc1cccc2ccccc12 [4k, reference compound] (H-[N(1-naphthylmethyl)Gly][N(4-MeBn)Gly][N(1-naphthylmethyl)Gly][NBuGly][Nlys][Nlys][Nlys][Nlys]-NH2) | 7 ± 0.3 | 19 ± 0.4 | 7 ± 0.1 | – | – | – | –
CCCCCCCCC(=O)NCCOCCOCC(=O)N(CC(=O)N(CC(=O)N(CC(=O)N(CCCC)CC(=O)N(CCCCN)CC(=O)N(CCCCN)CC(=O)N(CCCCN)CC(=O)N(CCCCN)CC(=O)N(CCCCN)CC(N)=O)Cc1cccc2ccccc12)Cc1ccc(C)cc1)Cc1cccc2ccccc12 [C8-EG2-5k] ({Nonanoyl-AEEA}-[N(1-naphthylmethyl)Gly][N(4-MeBn)Gly][N(1-naphthylmethyl)Gly][NBuGly][Nlys][Nlys][Nlys][Nlys][Nlys]-NH2) | 74 ± 4 | 41 ± 2 | 8 ± 0.3 | 1600 ± 390 | – | – | –
CCCCN(CC(=O)N(CCCCN)CC(N)=O)C(=O)CN(CCCCN)C(=O)CN(Cc1cccc2ccccc12)C(=O)CN(CCCCN)C(=O)CN(Cc1ccc(C)cc1)C(=O)CN(CCCCN)C(=O)CNCc1cccc2ccccc12 [Kykbk, reference compound] (H-[N(1-naphthylmethyl)Gly][Nlys][N(4-MeBn)Gly][Nlys][N(1-naphthylmethyl)Gly][Nlys][NBuGly][Nlys]-NH2) | 15 ± 1 | 20 ± 1 | 9 ± 0.4 | – | – | – | –
CCCCCCCCC(=O)NCCOCCOCC(=O)N(CC(=O)N(CCCCN)CC(=O)N(CC(=O)N(CCCCN)CC(=O)N(CC(=O)N(CCCCN)CC(=O)N(CCCC)CC(=O)N(CCCCN)CC(N)=O)Cc1cccc2ccccc12)Cc1ccc(C)cc1)Cc1cccc2ccccc12 [C8-EG2-kykbk] ({Nonanoyl-AEEA}-[N(1-naphthylmethyl)Gly][Nlys][N(4-MeBn)Gly][Nlys][N(1-naphthylmethyl)Gly][Nlys][NBuGly][Nlys]-NH2) | – | – | – | 1900 ± 200 | 11 ± 4 | 15 ± 3 | 2 ± 0.2
C[C@@H](c1ccccc1)N(CC(N)=O)C(=O)CN(C(=O)CN(CCCCN)C(=O)CN(C(=O)CN(C(=O)CN(CCCCN)C(=O)CN(C(=O)CN(C(=O)CN(CCCCN)C(=O)CN(C(=O)CN(C(=O)CNCCCCN)[C@@H](C)c1ccccc1)[C@@H](C)c1ccccc1)[C@@H](C)c1ccccc1)[C@@H](C)c1ccccc1)[C@@H](C)c1ccccc1)[C@@H](C)c1ccccc1)[C@@H](C)c1ccccc1 [(kss)4, reference compound] (H-[Nlys][Nspe][Nspe][Nlys][Nspe][Nspe][Nlys][Nspe][Nspe][Nlys][Nspe][Nspe]-NH2) | – | – | – | – | 6 ± 0.4 | 16 ± 0.3 | 4 ± 0.3
CCCCCCCCCCCCCCCC(=O)NCCOCCOCC(=O)N(CC(=O)N(CC(=O)N(CC(=O)N(CCCC)CC(=O)N(CCCCN)CC(=O)N(CCCCN)CC(=O)N(CCCCN)CC(=O)N(CCCCN)CC(N)=O)Cc1cccc2ccccc12)Cc1ccc(C)cc1)Cc1cccc2ccccc12 [C15-EG2-4k] ({Palmitoyl-AEEA}-[N(1-naphthylmethyl)Gly][N(4-MeBn)Gly][N(1-naphthylmethyl)Gly][NBuGly][Nlys][Nlys][Nlys][Nlys]-NH2) | – | – | – | 320 ± 24 | – | – | –
CCCCCCCCCCCCCCCC(=O)NCCOCCOCC(=O)N(CC(=O)N(CC(=O)N(CC(=O)N(CCCC)CC(=O)N(CCCCN)CC(=O)N(CCCCN)CC(=O)N(CCCCN)CC(=O)N(CCCCN)CC(=O)N(CCCCN)CC(N)=O)Cc1cccc2ccccc12)Cc1ccc(C)cc1)Cc1cccc2ccccc12 [C15-EG2-5k] ({Palmitoyl-AEEA}-[N(1-naphthylmethyl)Gly][N(4-MeBn)Gly][N(1-naphthylmethyl)Gly][NBuGly][Nlys][Nlys][Nlys][Nlys][Nlys]-NH2) | – | – | – | 360 ± 25 | – | – | –
CCCCCCCCC(=O)NCCOCCOCC(=O)N(CC(=O)N(CC(=O)N(CC(=O)N(CCCC)CC(=O)N(CCCCN)CC(=O)N(CCCCN)CC(=O)N(CCCCN)CC(=O)N(CCCCN)CC(N)=O)Cc1cccc2ccccc12)Cc1ccc(C)cc1)Cc1cccc2ccccc12 [C8-EG2-4k] ({Nonanoyl-AEEA}-[N(1-naphthylmethyl)Gly][N(4-MeBn)Gly][N(1-naphthylmethyl)Gly][NBuGly][Nlys][Nlys][Nlys][Nlys]-NH2) | – | – | – | 2500 ± 350 | 17 ± 1 | 16 ± 2 | 18 ± 3
CCCCCCCCC(=O)NCCOCCOCC(=O)N(CCCCN)CC(=O)N(CC(=O)N(CC(=O)N(CCCCN)CC(=O)N(CC(=O)N(CC(=O)N(CCCCN)CC(=O)N(CC(=O)N(CC(=O)N(CCCCN)CC(=O)N(CCCCN)CC(N)=O)[C@@H](C)c1ccccc1)[C@@H](C)c1ccccc1)[C@@H](C)c1ccccc1)[C@@H](C)c1ccccc1)[C@@H](C)c1ccccc1)[C@@H](C)c1ccccc1 [C8-EG2-(kss)3-kk] ({Nonanoyl-AEEA}-[Nlys][Nspe][Nspe][Nlys][Nspe][Nspe][Nlys][Nspe][Nspe][Nlys][Nlys]-NH2) | – | – | – | 270 ± 30 | 2 ± 0.3 | 6 ± 2 | 3 ± 1
CCCCCCCCCCCCCCCC(=O)NCCOCCOCC(=O)N(CC(=O)N(CCCCN)CC(=O)N(CC(=O)N(CCCCN)CC(=O)N(CC(=O)N(CCCCN)CC(=O)N(CCCC)CC(=O)N(CCCCN)CC(N)=O)Cc1cccc2ccccc12)Cc1ccc(C)cc1)Cc1cccc2ccccc12 [C15-EG2-kykbk] ({Palmitoyl-AEEA}-[N(1-naphthylmethyl)Gly][Nlys][N(4-MeBn)Gly][Nlys][N(1-naphthylmethyl)Gly][Nlys][NBuGly][Nlys]-NH2) | – | – | – | 410 ± 32 | – | – | –
CCCCCCCCC(=O)NCCOCCOCC(=O)N(CCCCN)CC(=O)N(CC(=O)N(CC(=O)N(CCCCN)CC(=O)N(CC(=O)N(CC(=O)N(CCCCN)CC(=O)N(CCCCN)CC(N)=O)[C@@H](C)c1ccccc1)[C@@H](C)c1ccccc1)[C@@H](C)c1ccccc1)[C@@H](C)c1ccccc1 [C8-EG2-(kss)2-kk] ({Nonanoyl-AEEA}-[Nlys][Nspe][Nspe][Nlys][Nspe][Nspe][Nlys][Nlys]-NH2) | – | – | – | 200 ± 37 | 18 ± 3 | 13 ± 3 | 9 ± 1
C[C@@H](c1ccccc1)N(CC(N)=O)C(=O)CN(C(=O)CN(CCCCN)C(=O)CN(C(=O)CN(C(=O)CNCCCCN)[C@@H](C)c1ccccc1)[C@@H](C)c1ccccc1)[C@@H](C)c1ccccc1 [(kss)2, reference compound] (H-[Nlys][Nspe][Nspe][Nlys][Nspe][Nspe]-NH2) | – | – | – | – | >100 | 44 ± 2 | 41 ± 2
C[C@@H](c1ccccc1)N(CC(N)=O)C(=O)CN(C(=O)CN(CCCCN)C(=O)CN(C(=O)CN(C(=O)CN(CCCCN)C(=O)CN(C(=O)CN(C(=O)CNCCCCN)[C@@H](C)c1ccccc1)[C@@H](C)c1ccccc1)[C@@H](C)c1ccccc1)[C@@H](C)c1ccccc1)[C@@H](C)c1ccccc1 [(kss)3, reference compound] (H-[Nlys][Nspe][Nspe][Nlys][Nspe][Nspe][Nlys][Nspe][Nspe]-NH2) | 4 ± 0.2 | 15 ± 1 | 2 ± 0.2 | – | – | – | –
